Source: article PMC4065394 (The FEBS journal, 2014)
“And” between values parts separate entries of the source, which are not always exact repeats. Identical values can stand only once. “Also recorded” adds a separate entry of the source. Like-named read-outs stand apart in the source and are kept apart here.

Key:
wild type DXP synthase [1] = biological target: T1, wild type DXP synthase (Escherichia coli, UniProt P77488); assay: DX product formation from pyruvate and D-glyceraldehyde; assay type: biochemical, E. coli; details: 30 mM D-glyceraldehyde and 5 mM pyruvate, 8 °C
R478A DXP synthase [2] = biological target: T2, R478A DXP synthase (Escherichia coli, UniProt P77488, R478A); details: − D-GAP, 6 °C, single turnover
R420A DXP synthase [3] = biological target: T3, R420A DXP synthase (Escherichia coli, UniProt P77488, R420A); details: − D-GAP, 6 °C, single turnover
Y392F DXP synthase [4] = biological target: T4, Y392F DXP synthase (Escherichia coli, UniProt P77488, Y392F); details: − D-GAP, 6 °C, single turnover
R478A DXP synthase [5] = biological target: T2, R478A DXP synthase; details: + D-GAP (2 mM in second syringe), 6 °C
R420A DXP synthase [6] = biological target: T3, R420A DXP synthase; details: + D-GAP (2 mM in second syringe), 6 °C
Y392F DXP synthase [7] = biological target: T4, Y392F DXP synthase; details: + D-GAP (200 μM in second syringe), 6 °C
wild type DXP synthase [8] = biological target: T1, wild type DXP synthase; details: − D-GAP, 6 °C; cited from earlier work
wild type DXP synthase [9] = biological target: T1, wild type DXP synthase; details: 6 °C, cited from earlier work
R478A DXP synthase [10] = biological target: T2, R478A DXP synthase; assay type: biochemical, E. coli; details: 6 °C, from pyruvate and D-GAP
Y392F DXP synthase [11] = biological target: T4, Y392F DXP synthase; assay type: biochemical, E. coli; details: 6 °C, from pyruvate and D-GAP
wild type DXP synthase [12] = biological target: T1, wild type DXP synthase; details: 6 °C; cited from earlier work
wild type DXP synthase [13] = biological target: T1, wild type DXP synthase; details: 30 mM D-glyceraldehyde, 8 °C
R478A DXP synthase [14] = biological target: T2, R478A DXP synthase; assay type: biochemical, E. coli; details: for Km: R478A, coupled assay, 37 °C
Y392F DXP synthase [15] = biological target: T4, Y392F DXP synthase; assay type: biochemical, E. coli; details: for Km: Y392F, coupled assay, 37 °C
R478A DXP synthase [16] = biological target: T2, R478A DXP synthase; assay type: biochemical, E. coli
R420A DXP synthase [17] = biological target: T3, R420A DXP synthase; assay: Steady-state DXP formation monitored by CD at 290 nm; assay type: biochemical, E. coli; details: 37 °C, D-GAP 0.25 – 2 mM, 1 mM pyruvate
Y392F DXP synthase [18] = biological target: T4, Y392F DXP synthase; assay type: biochemical, E. coli; details: CD at 290 nm, 37 °C
wild type DXP synthase [19] = biological target: T1, wild type DXP synthase; assay: Substrate binding by intrinsic total protein fluorescence; set-up: species or system E. coli
R478A DXP synthase [20] = biological target: T2, R478A DXP synthase; assay type: binding, E. coli; details: D-GAP up to 15 mM
R420A DXP synthase [21] = biological target: T3, R420A DXP synthase; assay: Substrate binding by intrinsic total protein fluorescence; set-up: species or system E. coli; details: D-GAP up to 15 mM
wild type DXP synthase [22] = biological target: T1, wild type DXP synthase; details: cited from earlier work
Y392F DXP synthase [23] = biological target: T4, Y392F DXP synthase; assay: Substrate binding by intrinsic total protein fluorescence; set-up: species or system E. coli
R478A DXP synthase [24] = biological target: T2, R478A DXP synthase; assay: biochemical; assay type: binding, E. coli
R420A DXP synthase [25] = biological target: T3, R420A DXP synthase; assay: biochemical; assay type: binding, E. coli
Y392F DXP synthase [26] = biological target: T4, Y392F DXP synthase; assay: CD titration with pyruvate; assay type: binding, E. coli
wild type DXP synthase [27] = biological target: T1, wild type DXP synthase; details: read-out: Kd^pyruvate (apparent), CD spectroscopy; cited from earlier work

## CC(=O)[C@@H](O)[C@H](O)CO [DX, 1-deoxy-D-xylulose]
Wild type DXP synthase [1]
  overall rate of DX product formation, k4: 1.15 ± 0.7 s⁻¹
  overall rate of DX product formation, k4′: 0.5 ± 0.2 s⁻¹

## Cc1ncc(C[n+]2c(C(C)(O)C(=O)O)sc(CCOP(=O)(O)OP(=O)(O)O)c2C)c(N)n1 (stereo not drawn) [LThDP, C2α-lactylthiamin diphosphate]
R478A DXP synthase [2]
  Formation of LThDP, k1 (faster phase): 0.85 ± 0.03 s⁻¹
  Formation of LThDP, k1′ (slower phase): 0.29 ± 0.02 s⁻¹
R420A DXP synthase [3]
  Formation of LThDP, k1 (faster phase): 1.24 ± 0.01 s⁻¹
  Formation of LThDP, k1′ (slower phase): 0.28 ± 0.002 s⁻¹
Y392F DXP synthase [4]
  Formation of LThDP, k1 (faster phase): 1.06 ± 0.03 s⁻¹
  Formation of LThDP, k1′ (slower phase): 0.3 ± 0.01 s⁻¹
R478A DXP synthase [5]
  D-GAP-promoted LThDP Decarboxylation, k2: k2 = 36.5 ± 1.1 s^−1
  Formation of LThDP (re-synthesis), k1: k1 = 0.84 ± 0.004 s^−1
R420A DXP synthase [6]
  Formation of LThDP (re-synthesis), k1: k1 = 0.67 ± 0.003 s^−1
Y392F DXP synthase [7]
  Formation of LThDP (re-synthesis), k1: k1 = 0.82 ± 0.01 s^−1
Wild type DXP synthase [8]
  Formation of LThDP, k1 (faster phase): 1.39 ± 0.05 s⁻¹
  Formation of LThDP, k1′ (slower phase): 0.16 ± 0.02 s⁻¹
  LThDP Decarboxylation, k2: k2 = 0.07 ± 0.006 s^−1
Wild type DXP synthase [9]
  D-GAP-promoted LThDP Decarboxylation, k2: k2 = 42.0 ± 1.0 s^−1
Wild type DXP synthase [9]; + D-GAP
  Formation of LThDP (re-synthesis), k1: k1 = 0.68 ± 0.01 s^−1

## CC(=O)[C@@H](O)[C@H](O)COP(=O)(O)O [DXP, 1-deoxy-D-xylulose 5-phosphate]
R478A DXP synthase [10]
  Formation of DXP, k4 (faster phase): 0.78 ± 0.08 s⁻¹
  Formation of DXP, k4′ (slower phase): 0.26 ± 0.02 s⁻¹
Y392F DXP synthase [11]
  Formation of DXP, k4 (faster phase): 1.34 ± 0.12 s⁻¹
  Formation of DXP, k4′ (slower phase): 0.34 ± 0.01 s⁻¹
Wild type DXP synthase [12]
  Formation of DXP, k4′ (slower phase): 0.29 ± 0.01 s⁻¹

## O=C[C@H](O)CO [D-glyceraldehyde]
Wild type DXP synthase [13]
  rate of LThDP decarboxylation promoted with D-glyceraldehyde, k2: 21.5 ± 0.2 s⁻¹ and 21 s⁻¹

## O=C[C@H](O)COP(=O)(O)O [D-GAP, D-glyceraldehyde 3-phosphate]
R478A DXP synthase [14]; R478A vs wild type
  increase in Km^D-GAP compared to wild type DXP synthase: 70 fold
R478A DXP synthase [14]; read-out: Km^D-GAP
  Km: 1600 ± 300 µM
Y392F DXP synthase [15]; Y392F vs wild type
  decrease in kcat/Km^D-GAP compared to wild type: near eight-fold decrease
Y392F DXP synthase [15]; read-out: Km^D-GAP
  Km: 210 ± 20 µM
R478A DXP synthase [16]; CD at 290 nm, 37 °C
  Hill coefficient nH for D-GAP: 1.1 ± 0.1
R478A DXP synthase [16]; read-out: Km^D-GAP, CD at 290 nm, 37 °C, D-GAP 0.15 – 2 mM, 1 mM pyruvate
  Km: 530 ± 100 µM
R420A DXP synthase [17]
  saturation by D-GAP: saturation by D-GAP is not achieved; also recorded: Saturation was not achieved
Y392F DXP synthase [18]
  Hill coefficient nH for D-GAP: 1.2 ± 0.1
Wild type DXP synthase [19]
  Kd: 2000 ± 500 µM
R478A DXP synthase [20]
  fluorescence quenching upon titration of D-GAP: quenching of fluorescence was not observed; also recorded: negligible changes in fluorescence
R420A DXP synthase [21]
  fluorescence quenching upon titration of D-GAP: negligible changes in fluorescence; also recorded: quenching of fluorescence was not observed
Wild type DXP synthase [22]; read-out: Km^D-GAP
  Km: 23.5 ± 1.7 µM

## CC(=O)C(=O)O [pyruvate]
R478A DXP synthase [14]; read-out: Km^pyruvate
  Km: 54 ± 7 µM
Y392F DXP synthase [15]; Y392F vs wild type
  increase in Km^pyruvate compared to wild type: 1.5 fold
Y392F DXP synthase [15]; read-out: Km^pyruvate
  Km: 73 ± 4 µM
Wild type DXP synthase [19]
  Kd: 230 ± 70 µM
Y392F DXP synthase [23]
  Kd: 230 ± 60 µM
R478A DXP synthase [24]
  Kd: 80 ± 30 µM
R478A DXP synthase [24]; R478A, CD, 5 °C
  Hill coefficient nH for pyruvate: 1.0 ± 0.2
R420A DXP synthase [25]
  Kd: 37 ± 8 µM
R420A DXP synthase [25]; R420A, CD, 5 °C
  Hill coefficient nH for pyruvate: 1.2 ± 0.3
Y392F DXP synthase [26]
  Kd: 113 µM
Wild type DXP synthase [22]; read-out: Km^pyruvate, wild type
  Km: 49 ± 8 µM
Wild type DXP synthase [27]
  Kd: 89.4 µM
